Consider two molecules from BindingDB's records for doi:10.1021/jm00046a008 (University of Alabama At Birmingham, 1994).

Each structure is given as a SMILES string.

This experiment deals with Carnitine O-acetyltransferase (Columba livia). Description: Tested against pigeon breast carnitine acyltransferase.

As to `CC(=O)NC(CC(=O)[O-])C[N+](C)(C)C` (configuration not stated) [(2-Acetylamino-3-carboxy-propyl)-trimethyl-ammonium], the inhibition constant Ki came out at 0.024 mM. In the case of `CC(=O)NC(CC(=O)O)CC(C)(C)C` (configuration not stated) [3-Acetylamino-5,5-dimethyl-hexanoic acid anion] it was 25 mM.
